US20250134907A1, “FUSED DIAZEPINES AS AGONISTS OF THE INSULIN-LIKE 3 (INSL3) PEPTIDE RECEPTOR RXFP2 AND METHODS OF USE THEREOF” (The United States of America,as represented by the …, priority 2022, published 2025)

Assays:
RXFP1 = target: T1, RXFP1 (Homo sapiens, UniProt Q9HBX9); assay: HTRF cAMP counter-screen in HEK-RXFP1 cells; assay type: cell-based; details: compound 10 μM-[…], IBMX 200 μM
T1 construct: expressed in transfected cells
T1 sequence (Q9HBX9 1-757): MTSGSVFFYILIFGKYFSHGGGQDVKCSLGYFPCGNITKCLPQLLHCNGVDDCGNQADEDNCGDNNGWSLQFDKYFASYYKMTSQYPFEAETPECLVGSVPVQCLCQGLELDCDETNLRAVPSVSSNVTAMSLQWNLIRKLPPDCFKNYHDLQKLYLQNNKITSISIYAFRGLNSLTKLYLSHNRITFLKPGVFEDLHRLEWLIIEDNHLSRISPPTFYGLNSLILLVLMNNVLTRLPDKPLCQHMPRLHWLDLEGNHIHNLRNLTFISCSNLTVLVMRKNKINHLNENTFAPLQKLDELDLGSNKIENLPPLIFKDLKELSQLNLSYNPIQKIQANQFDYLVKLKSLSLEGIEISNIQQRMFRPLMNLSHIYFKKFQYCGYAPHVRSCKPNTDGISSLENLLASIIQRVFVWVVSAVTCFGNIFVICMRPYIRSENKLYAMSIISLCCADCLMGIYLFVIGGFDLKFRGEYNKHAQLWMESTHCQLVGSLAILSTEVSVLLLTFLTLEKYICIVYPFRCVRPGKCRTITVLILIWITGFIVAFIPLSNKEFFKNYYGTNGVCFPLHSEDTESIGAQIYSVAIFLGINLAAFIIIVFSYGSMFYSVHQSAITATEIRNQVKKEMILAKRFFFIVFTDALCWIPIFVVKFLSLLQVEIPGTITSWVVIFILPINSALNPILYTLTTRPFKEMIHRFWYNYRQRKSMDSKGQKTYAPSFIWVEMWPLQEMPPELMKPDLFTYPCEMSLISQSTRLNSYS
Excerpt: HEK293T cells stably transfected with RXFP1 (HEK-RXFP1) were used to test compound specificity towards the RXFP2 receptor using the HTRF Gs dynamic cAMP assay kit (PerkinElmer, Waltham, MA). This is a competitive immunoassay where a time-resolved fluorescence resonance energy (TR-FRET) signal is produced when exogenous d2-labeled cAMP (acceptor) binds to europium cryptate-conjugated anti-cAMP antibody (donor). No signal is produced when endogenous cAMP binds to the antibody. Thus, the TR-FRET signal is inversely proportional to the concentration of cAMP produced by the cells. The HTRF cAMP assay was carried out in the presence of isobutylmethylxanthine phosphodiesterase inhibitor (IBMX) at 200 μM to amplify the cAMP signal. For this assay, cells were seeded in 96-well flat-bottom opaque plates at 30,000 cells/well in 60 μL/well of serum-free DMEM medium and allowed to attach overnight at 37° C., 5% CO2. The next morning, cells were treated with 1 μL/well of compound (10 μM-1.2 nM), 1 μM forskolin, or DMSO vehicle. Cells were also treated with 4 μL of 10 nM Relaxin2 (Peprotech, Cranbury, NJ) as a positive control or vehicle (serum-free DMEM+IBMX). […] Cells were incubated for 1 hour at room temperature, and then the signal was read on a CLARIOstar plate reader (BMG Labtech, Germany). […]

RXFP2 = target: T2, RXFP2 (Homo sapiens, UniProt Q8WXD0); assay: HTRF cAMP assay in HEK-RXFP2 cells with INSL3 B dimer antagonist co-treatment; assay type: cell-based; details: antagonist 10 μM-[…], IBMX 200 μM
T2 construct: expressed in transfected cells
Experimental: Previous publications have characterized the INSL3/RXFP2 binding model, showing that the B-chain of INSL3 binds with high affinity to the extracellular leucine-rich repeat (LRR) domain of RXFP2. To determine if the RXFP2 agonists interact with the receptor in a similar manner, an INSL3 antagonist (INSL3 B dimer) was used to co-treat HEK-RXFP2 cells with RXFP2 agonists or INSL3 and measure induction of cAMP using the HTRF assay. […] The HTRF cAMP assay was carried out in the presence of 200 μM IBMX to amplify the cAMP signal. For this assay, cells were seeded in 96-well flat-bottom opaque plates at 7,500 cells/well in 60 μL/well of serum-free DMEM medium and allowed to attach overnight at 37° C. and 5% CO2. The next morning, cells were treated with 2 μL of INSL3 B dimer antagonist (10 μM-0.21 nM) and 2 μL of 30 nM INSL3 or 4 μL of vehicle (serum-free DMEM+IBMX). Cells were also treated with 1 μL/well of 0.28 μM compound, 2 μM forskolin, or DMSO vehicle. Cells were incubated for 1 hour at 37° C., 5% CO2, after which kit cAMP-d2 and anti-cAMP antibody were added as previously described. Plates were incubated for 1 hour at room temperature, and then the signal was read on a CLARIOstar plate reader (BMG Labtech, Germany).

T2 sequence (Q8WXD0 whole entry): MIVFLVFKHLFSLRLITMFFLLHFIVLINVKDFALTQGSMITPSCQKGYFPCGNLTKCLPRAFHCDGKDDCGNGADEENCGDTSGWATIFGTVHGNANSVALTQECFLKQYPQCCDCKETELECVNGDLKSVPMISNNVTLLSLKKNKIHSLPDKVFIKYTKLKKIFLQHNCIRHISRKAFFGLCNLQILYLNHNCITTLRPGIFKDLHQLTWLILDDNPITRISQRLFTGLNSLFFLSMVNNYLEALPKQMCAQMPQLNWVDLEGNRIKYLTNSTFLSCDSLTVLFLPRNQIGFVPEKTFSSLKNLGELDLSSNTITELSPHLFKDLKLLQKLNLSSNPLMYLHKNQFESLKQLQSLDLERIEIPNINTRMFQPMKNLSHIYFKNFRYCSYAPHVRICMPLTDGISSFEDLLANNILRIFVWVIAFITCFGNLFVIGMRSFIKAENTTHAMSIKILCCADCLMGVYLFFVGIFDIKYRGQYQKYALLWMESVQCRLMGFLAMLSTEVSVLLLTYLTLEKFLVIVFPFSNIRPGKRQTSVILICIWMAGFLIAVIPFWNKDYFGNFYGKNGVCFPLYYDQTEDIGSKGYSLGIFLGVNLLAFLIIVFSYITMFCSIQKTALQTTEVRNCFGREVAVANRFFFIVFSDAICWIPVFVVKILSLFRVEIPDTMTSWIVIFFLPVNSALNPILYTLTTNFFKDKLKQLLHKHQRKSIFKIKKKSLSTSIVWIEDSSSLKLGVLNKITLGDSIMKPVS

RXFP1 cAMP response (activation of RXFP1) (RXFP1) | SMILES | effect of INSL3 B dimer antagonist on cAMP response induced by the compound (RXFP2)
do not activate | O=C1Nc2ccc(-c3cccc(C(F)(F)F)c3)cc2C(=O)N2CCN(C(=O)COc3ccc(OC(F)(F)F)cc3Br)C[C@@H]12 [Example 123, (S)-2-(2-(2-bromo-4-(trifluoromethoxy)phenoxy)acetyl)-8-(3-(trifluoromethyl)phenyl)-1,3,4,12a-tetrahydrobenzo[e]pyrazino[1,2-a][1,4]diazepine-6,12 (2H, 11H)-dione] | –
do not activate | O=C1Nc2ccc(-c3cc(C(F)(F)F)cc(C(F)(F)F)c3)cc2C(=O)N2CCN(C(=O)COc3ccc(OC(F)(F)F)cc3Br)C[C@@H]12 [Example 158, (S)-8-(3,5-Bis(trifluoromethyl)phenyl)-2-(2-(2-bromo-4-(trifluoromethoxy)phenoxy)acetyl)-1,3,4,12a-tetrahydrobenzo[e]pyrazino[1,2-a][1,4]diazepine-6,12 (2H, 11H)-dione] | –
– | O=C1Nc2ccc(-c3cc(C(F)(F)F)cc(C(F)(F)F)c3)cc2C(=O)N2CCN(C(=O)COc3ccc(OC(F)(F)F)cc3I)C[C@@H]12 [Example 187, (S)-8-(3,5-bis(trifluoromethyl)phenyl)-2-(2-(2-iodo-4-(trifluoromethoxy)phenoxy)acetyl)-1,3,4,12a-tetrahydrobenzo[e]pyrazino[1,2-a][1,4]diazepine-6,12 (2H, 11H)-dione] | no effect
